These results are taken from patent US20020028809A1 (SUNTORY LIMITED, priority 1999, published 2002).

Read-outs that look alike come from different tables or passages of the source.

As a reminder, the Ki is the equilibrium dissociation constant of an inhibitor or competing ligand from its target.

The target of experiment [1] is T1, α4β2 subtype of nicotinic acetylcholine receptors (Rattus norvegicus, UniProt P09483+P12390).
T1 construct: examined using rat brain membrane obtained from whole homogenized brain; from tissue; host or cells: whole brain of Fischer-344 male rats, membrane pellet
T1 sequence (P09483 31-630): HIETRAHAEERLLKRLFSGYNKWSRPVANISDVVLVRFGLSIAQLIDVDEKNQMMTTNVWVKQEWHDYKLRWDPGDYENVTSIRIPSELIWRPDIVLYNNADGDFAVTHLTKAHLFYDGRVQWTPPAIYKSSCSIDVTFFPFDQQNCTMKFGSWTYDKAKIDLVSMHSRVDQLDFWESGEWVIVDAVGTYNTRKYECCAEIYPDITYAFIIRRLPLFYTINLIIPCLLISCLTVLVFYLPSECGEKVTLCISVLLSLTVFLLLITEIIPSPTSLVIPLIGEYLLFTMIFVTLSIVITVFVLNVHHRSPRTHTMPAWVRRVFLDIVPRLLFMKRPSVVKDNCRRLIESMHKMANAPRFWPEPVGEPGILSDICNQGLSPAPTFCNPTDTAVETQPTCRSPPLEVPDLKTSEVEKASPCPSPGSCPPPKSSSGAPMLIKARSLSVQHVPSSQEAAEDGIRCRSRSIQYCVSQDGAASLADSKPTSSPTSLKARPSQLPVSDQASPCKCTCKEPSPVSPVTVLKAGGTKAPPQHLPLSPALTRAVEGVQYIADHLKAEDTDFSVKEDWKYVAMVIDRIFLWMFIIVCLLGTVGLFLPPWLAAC
T1 sequence (P12390 25-500): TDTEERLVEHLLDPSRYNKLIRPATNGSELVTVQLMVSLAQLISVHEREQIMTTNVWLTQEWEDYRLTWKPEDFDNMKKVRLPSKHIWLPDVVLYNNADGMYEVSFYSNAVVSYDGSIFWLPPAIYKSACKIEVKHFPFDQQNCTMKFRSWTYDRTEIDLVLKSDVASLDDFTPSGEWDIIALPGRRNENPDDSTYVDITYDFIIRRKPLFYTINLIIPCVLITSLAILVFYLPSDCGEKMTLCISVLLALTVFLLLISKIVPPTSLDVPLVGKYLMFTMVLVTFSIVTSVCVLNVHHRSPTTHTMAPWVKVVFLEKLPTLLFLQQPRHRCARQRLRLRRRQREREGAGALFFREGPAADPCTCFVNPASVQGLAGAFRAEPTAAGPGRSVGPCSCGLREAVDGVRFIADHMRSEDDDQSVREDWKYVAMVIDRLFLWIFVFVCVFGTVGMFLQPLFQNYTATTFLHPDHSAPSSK
Kind of experiment: Binding assays at α4β2 subtype of nicotinic acetylcholine receptors ([3H]-cytisine, rat brain membrane). The source says:
(§1) Methods for evaluating binding capabilities of the compounds at nicotinic acetylcholine receptors are different by subtypes of receptors. Binding capabilities of the compounds at α4β2 nicotinic acetylcholine receptors are examined using rat brain membrane obtained from whole homogenized brain, and determining the inhibiting rate of the compounds against [^3H]-cytisine binding to said brain membrane. Furthermore, the binding capabilities of the compounds at α1β1γδ nicotinic acetylcholine receptors are examined using homogenized rat muscle, and determining the inhibiting rate of the compounds against [^3H]-α-bungarotoxin binding to said muscle homogenate.
Binding assays at α4β2 Subtype of Nicotinic Acetylcholine Receptors
(1) Preparation of Rat Brain Membrane Containing α4β2 Subtype of Nicotinic Acetylcholine Receptors
Rats were housed in the breeding cage controlled of the room temperature at 23±1° C., and the humidity of 55±5% for 1 to 4 weeks. Rats (3 to 4 rats per a cage) were housed with lights on for 12 hours daily (from 7:00 to 19:00), and allowed free access to food and water.
Preparation of rat brain membrane containing α4β2 subtype of nicotinic acetylcholine receptors was performed as follow. That is, rat brains were isolated just after sacrificed by decapitation, washed with ice-cooled saline solution and then frozen at −80° C. with liquid nitrogen and stored till using. After thawing the frozen brain, the brain was homogenized in 10 volumes of ice-cooled buffer solution (50 mM of Tris-HCl, 120 mM of NaCl, 5 mM of KCl, 1 mM of MgCl2, 2mM of CaCl2; pH 7.4; 4° C.) using homogenizer (HG30, Hitachi Kohki Ltd.) for 30 seconds, and the homogenate were centrifuged under 1,000×G for 10 minutes at 4° C. The resulting supernatant was separated and the pellet was homogenized again with half volume of aforementioned prior buffer solution and centrifuged under the same conditions. Combined supernatant was further centrifuged under 40,000×G for 20 minutes at 4° C. The pellet was suspended in buffer solution and used for binding assays at receptors.
(2) Experiments of α4β2 Subtype of Nicotinic Acetylcholine Receptors Binding
Suspensions of membrane pellets containing 400-600 μg of protein were added to test tubes containing test compounds and [^3H]-cytisine (2 nM) in a final volume of 200 μl and incubated for 75 minutes in ice-cooled bath. The samples were isolated by vacuum filtration onto Whatman GF/B filters, which were prerinsed with 0.5% polyethylenimine just prior to sample filtration, using Brandel multi manifold cell harvester. The filters were rapidly washed with buffer solution (3×1 ml). The filters were counted in 3 ml of clearsol I (Nacalai Tesque Inc.).
Analyses of the experimental results were conducted using the Accufit Competition Program (Beckman Ltd.).

Experiment [2] concerns the target T2, α1β1γδ subtype of nicotinic acetylcholine receptors (Rattus norvegicus, UniProt P18916+P25108+P25109+P25110).
T2 construct: Native receptor, no construct: "Triton X100 (2% w/v) was added
As to the kind of experiment: Binding assays at α1β1γδ subtype of nicotinic acetylcholine receptors ([3H]-α-bungarotoxin, rat muscle extract). To be noted: for remaining activity at 100 µM / remaining activity at 1000 µM: read-out: control % of [3H]-α-Bgt binding.
Description: as §1
Binding Assays at α1β1γδ Subtype of Nicotinic Acetylcholine Receptors
Affinity of the compounds of the present invention to α1βγδ subtype of nicotinic acetylcholine receptors was measured by the following method, which was modified method described by Garcha H. S., Thomas P., Spivak C.
(1) Preparation of Rat Skeletal Muscles Containing α1β1γδ Subtype of Nicotinic Acetylcholine Receptors
The substantially same animals described in the Biological Experiment 1 were used.
Isolation of α1β1γδ subtype of nicotinic acetylcholine receptors was performed as follow. That is, rat posterior skeletal muscles were isolated just after sacrificed by decapitation, washed with ice-cooled saline solution and then frozen at −80° C. with liquid nitrogen and stored till using. After thawing the frozen muscles, tissue was homogenized (40% w/v) with buffer solution [2.5 mM of sodium phosphate buffer (pH:7.2), 90 mM of NaCl, 2 mM of KCl, 1 mM of EDTA, 2 mM of benzamidine, 0.1 mM of benzethonium chloride, […], 0.01% of sodium azide] in Waring blender (Waring blender 34BL97; WARING PRODUCTS DIVISION DYNAMICS CORPORATION OF AMERICA) for 60 seconds. The homogenate were centrifuged under 20,000×G for 60 minutes at 4° C. The supernatant was separated and the resulting pellet was added to the same buffer (1.5 ml/g wet weight), and homogenized under the same conditions. Triton X100 (2% w/v) was added and the mixture was stirred for 3 hours at 4° C. The centrifugation at 100,000×G for 60 minutes at 4° C. yielded the rat muscle extract as supernatant. This was stored at 4° C. for up to 4 weeks, and used for binding assays at receptors.
(2) Experiments of α1β1γδSubtype of Nicotinic Acetylcholine Receptors Binding
Receptors binding experiments were performed as follow. That is, the extract of rat muscle containing 600-900 μg of protein was added to test tubes containing test compounds and incubated for 15 minutes at 37° C. Then, to this mixture was added 1 nM of [^3H]-α-bungarotoxin (α-Bgt) and further incubated for 2 hours. The samples were isolated by vacuum filtration onto Whatman GF/B filters, which were prerinsed with 0.5% polyethylenimine just prior to sample filtration, using Brandel multi manifold cell harvester. The filters were rapidly rinsed with washing solution (10 mM of KH2PO4, 150 mM of NaCl, pH 7.2, room temperature) (5×1 ml). The filters were counted in 3 ml of clearsol I (Nacalai Tesque Inc.). Determination of nonspecific binding was incubated in the presence of 1 μM α-Bgt.
In the receptor binding experiments, said buffer solution was added for adjusting the final concentration of BSA to be 0.05%.
Analyses of the experimental results were conducted by the same way as described in the Biological Experiment 1.

Where [3] appears, read: rat brain membrane, [3H]-cytisine (2 nM), read-out: Affinities for receptors Ki α4β2.
Setting [4] is: at 1 μM of test compound, rat brain membrane.
The mark [5] stands for this setting: at 10 μM of test compound, rat brain membrane.

T2 sequence (P25108 21-457): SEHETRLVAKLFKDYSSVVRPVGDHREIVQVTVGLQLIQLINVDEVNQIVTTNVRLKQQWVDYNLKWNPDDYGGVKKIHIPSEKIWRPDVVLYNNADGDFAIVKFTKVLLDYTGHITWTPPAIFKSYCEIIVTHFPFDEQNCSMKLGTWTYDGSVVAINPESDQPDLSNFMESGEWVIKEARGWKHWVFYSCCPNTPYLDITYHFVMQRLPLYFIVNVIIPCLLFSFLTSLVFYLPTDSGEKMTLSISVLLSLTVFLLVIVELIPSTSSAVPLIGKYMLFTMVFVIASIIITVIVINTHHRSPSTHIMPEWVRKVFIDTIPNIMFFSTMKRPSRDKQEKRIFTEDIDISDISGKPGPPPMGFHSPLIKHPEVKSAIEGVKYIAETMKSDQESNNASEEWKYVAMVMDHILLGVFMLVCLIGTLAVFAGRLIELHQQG
T2 sequence (P25110 22-517): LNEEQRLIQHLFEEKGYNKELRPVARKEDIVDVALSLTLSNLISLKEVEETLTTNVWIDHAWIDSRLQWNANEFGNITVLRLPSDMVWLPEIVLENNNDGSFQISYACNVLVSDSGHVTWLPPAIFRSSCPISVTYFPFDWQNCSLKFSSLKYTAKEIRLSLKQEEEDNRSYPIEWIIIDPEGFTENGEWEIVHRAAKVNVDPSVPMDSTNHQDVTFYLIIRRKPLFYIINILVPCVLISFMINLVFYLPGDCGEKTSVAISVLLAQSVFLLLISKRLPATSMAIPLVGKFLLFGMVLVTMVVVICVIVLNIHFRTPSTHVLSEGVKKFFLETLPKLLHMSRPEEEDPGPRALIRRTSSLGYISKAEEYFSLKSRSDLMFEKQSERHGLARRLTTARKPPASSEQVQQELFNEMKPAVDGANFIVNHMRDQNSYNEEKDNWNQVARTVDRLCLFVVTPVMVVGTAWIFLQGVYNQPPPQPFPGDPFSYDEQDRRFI
T2 sequence (P25109 24-501): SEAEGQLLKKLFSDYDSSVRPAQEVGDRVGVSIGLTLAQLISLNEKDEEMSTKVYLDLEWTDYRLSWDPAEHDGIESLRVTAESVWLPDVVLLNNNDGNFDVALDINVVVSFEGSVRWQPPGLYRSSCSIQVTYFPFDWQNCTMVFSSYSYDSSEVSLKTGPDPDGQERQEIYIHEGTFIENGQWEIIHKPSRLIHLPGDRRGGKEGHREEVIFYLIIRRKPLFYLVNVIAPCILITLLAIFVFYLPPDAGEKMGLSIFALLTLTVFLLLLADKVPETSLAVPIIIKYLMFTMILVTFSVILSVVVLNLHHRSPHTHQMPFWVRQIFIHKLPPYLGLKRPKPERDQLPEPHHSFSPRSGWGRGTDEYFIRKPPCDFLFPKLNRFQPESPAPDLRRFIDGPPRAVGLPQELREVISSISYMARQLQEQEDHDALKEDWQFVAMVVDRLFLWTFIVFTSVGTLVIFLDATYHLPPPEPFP

Regarding `Cc1ccc(Cn2c(C)csc2=N)cn1` [Compound 39, 2-imino-4-methyl-3-(6-methyl-3-pyridyl)methyl-2,3-dihydrothiazole], the values for the Ki in experiment [1] and in experiment [2] were 30.5 nM and 10800 nM, respectively.
Turning to `N=c1sccn1Cc1cccc([N+](=O)[O-])c1` [Compound 61, 2-imino-3-(3-nitrobenzyl)-2,3-dihydrothiazole], the Ki in experiment [1] came out at 65.4 nM; in experiment [2], 219000 nM.
As for `N#Cc1ccc(Cn2ccsc2=N)cc1` [Compound 65, 3-(4-cyanobenzyl)-2-imino-2,3-dihydrothiazole], the Ki in experiment [1] was found to be 181 nM; in experiment [2], 311000 nM.
For `N=c1ncccn1Cc1ccc(Cl)nc1` [Compound 10, 1-(6-chloro-3-pyridyl)methyl-2-imino-1,2-dihydropyrimidine], the Ki in experiment [1] came to 8.7 nM; in experiment [2], 347000 nM.
In turn, `N=c1ccc(-c2ccccc2)nn1Cc1cccnc1` [Compound 45, 3-imino-6-phenyl-2-(3-pyridyl)methyl-2,3-dihydropyridazine] showed a Ki in experiment [1] of 143 nM. Moreover, in experiment [2], the remaining activity at 100 µM was 18% and the remaining activity at 1000 µM came out at 6%.
`N=c1ncc(-c2ccccc2)cn1Cc1ccc(Cl)nc1` [Compound 46, 1-(6-chloro-3-pyridyl)methyl-2-imino-5-phenyl-1,2-dihydropyrimidine] returned a Ki in experiment [1] of 273 nM. Besides, in experiment [2], the remaining activity at 100 µM turned out to be 88% and the remaining activity at 1000 µM came to 66%.
As to `Cc1cccn(Cc2ccc(Cl)nc2)c1=N` [Compound 23, 1-(6-chloro-3-pyridyl)methyl-2-imino-3-methyl-1,2-dihydropyridine], in experiment [1], the affinity, expressed as Ki, was 221 nM. In addition, in experiment [2], the remaining activity at 100 µM was found to be 89% and the remaining activity at 1000 µM amounted to 52%.
Turning to `N=C1SCCCN1Cc1ccc(Cl)nc1` [Compound 17, 3-(6-chloro-3-pyridyl)methyl-2-imino-3,4,5,6-tetrahydro-2H-1,3-thiazine], the Ki in experiment [1] (setting [3]) was determined as 520 nM. In experiment [2], the remaining activity at 100 µM amounted to 68% and the remaining activity at 1000 µM was found to be 23%.
For the compound `Nc1nccn1Cc1ccc(Cl)cc1` [Compound 58, 2-amino-i-(4-chlorobenzyl)imidazole], the figures for the “control % of [3H]-cytisine binding” value in experiment [1] (setting [4]) and in experiment [1] (setting [5]) were “(62%,” and 16%), respectively. For the same compound, the remaining activity at 100 µM in experiment [2] was 62%. Besides, the remaining activity at 1000 µM in experiment [2] was 37%.
As for `N=C1SCCN1Cc1cccnc1` [Compound 4, 2-imino-3-(3-pyridyl)methylthiazolidine], the affinity in experiment [1], expressed as Ki, was 7.5 nM. Moreover, in experiment [2], the remaining activity at 100 µM came out at 6% and the remaining activity at 1000 µM was found to be 1%.
`CCc1csc(=N)n1Cc1ccc(Cl)nc1` [Compound 21, 3-(6-chloro-3-pyridyl)methyl-4-ethyl-2-imino-2,3-dihydrothiazole]: in experiment [1], the Ki was determined as 21.7 nM. Further, in experiment [2], the remaining activity at 100 µM came out at 57% and the remaining activity at 1000 µM was determined as 19%.
Regarding `Cc1nc(N)n(Cc2ccc(Cl)nc2)c1C` [Compound 51, 2-amino-1-(6-chloro-3-pyridyl)methyl-4,5-dimethylimidazole], the results for the “control % of [3H]-cytisine binding” value in experiment [1] (setting [4]) and in experiment [1] (setting [5]) were “(96%” and 33%), respectively. The remaining activity at 100 µM in experiment [2] is 103%. The remaining activity at 1000 µM in experiment [2] was determined as 53%.
In turn, `Cc1cc(CN2CCSC2=N)on1` [Compound 35, 2-imino-3-(3-methyl-5-isoxazolyl)methylthiazolidine] returned a Ki in experiment [1] of 41 nM. In addition, in experiment [2], the remaining activity at 100 µM was 12% and the remaining activity at 1000 µM is -3%.
Consider `Nc1nccn1Cc1cncnc1` [Compound 52, 2-amino-1-(5-pyrimidyl)methylimidazole], for which the Ki came to 24.9 nM in experiment [1] and 302000 nM in experiment [2].
As to `Cc1ccc(Cn2ccccc2=N)cn1` [Compound 48, 2-imino-1-(6-methyl-3-pyridyl)methyl-1,2-dihydropyridine], the Ki was found to be 47.9 nM in experiment [1] and 56300 nM in experiment [2].
As for `Cc1ccc(CN2CCSC2=N)cn1` [Compound 32, 2-imino-3-(6-methyl-3-pyridyl)methylthiazolidine], the Ki in experiment [1] is 10 nM; in experiment [2], 14600 nM.
`N=C1CCCCN1Cc1ccc(Cl)nc1` [Compound 15, 1-(6-chloro-3-pyridyl)methyl-2-iminopiperidine]: the Ki in experiment [1] (setting [3]) was determined as 4.8 nM. Besides, in experiment [2], the remaining activity at 100 µM turned out to be 21% and the remaining activity at 1000 µM was determined as 4%.
In the case of `Cc1csc(=N)n1Cc1ccc(F)nc1` [Compound 18, 3-(6-fluoro-3-pyridyl)methyl-2-imino-4-methyl-2,3-dihydrothiazole], the Ki in experiment [1] amounted to 10.8 nM; in experiment [2], 5800 nM.
On to `Cc1ccc(=N)n(Cc2ccc(Cl)nc2)c1` [Compound 24, 1-(6-chloro-3-pyridyl)methyl-2-imino-5-methyl-1,2-dihydropyridine], for which, in experiment [1], the Ki turned out to be 48.6 nM. Besides, in experiment [2], the remaining activity at 100 µM was determined as 80% and the remaining activity at 1000 µM came out at 36%.
